In ChEMBL document CHEMBL1127888, “Synthesis and biological activity of intercalator substituted bile steroids” (Bioorg Med Chem Lett, 1994) one finds IC50 data, which are given here for five molecules.

Where only a bound is given, the exact number is not on record here.

Assay [1] relates to L1210. Kind of assay: Inhibitory activity against mouse leukemia L1210 cells. In kind it is functional, cell-based.
For assay [2], the system named is L1210. Kind of assay: Inhibitory activity against mouse leukemia L1210 cells; Range is 20 to >50. In kind it is functional, cell-based.

As usually defined, the IC50 is the point on the concentration scale where inhibition reaches its midpoint. The low end stands for greater potency, the high end for weaker potency. `CC(CCCOC(=O)c1cnc2ccccc2c1)C1CC[C@H]2[C@@H]3[C@H](O)CC4C[C@H](O)CC[C@]4(C)[C@H]3C[C@H](O)[C@]12C` (stereo not given in full) came in with an IC50 in the assay with L1210 [1] of 4.8 µM. This counts as single-digit micromolar.

Molecule `CC(CCCOC(=O)c1cnc2ccccc2n1)C1CC[C@H]2[C@@H]3[C@H](O)CC4C[C@H](OC(=O)c5cnc6ccccc6n5)CC[C@]4(C)[C@H]3C[C@H](O)[C@]12C` (stereo not given in full) had an IC50 in the assay on L1210 [2] of more than 50 µM.

Consider `CC(CCCOC(=O)c1cnc2ccccc2c1)C1CC[C@H]2[C@@H]3[C@H](O)CC4C[C@H](OC(=O)c5cnc6ccccc6c5)CC[C@]4(C)[C@H]3C[C@H](O)[C@]12C` (stereo not given in full), for which the half-inhibitory concentration (IC50) in the assay with L1210 [2] is more than 50 µM.

`CC(CCCOC(=O)c1ccc2ccccc2n1)C1CC[C@H]2[C@@H]3[C@H](O)CC4C[C@H](OC(=O)c5ccc6ccccc6n5)CC[C@]4(C)[C@H]3C[C@H](O)[C@]12C` (stereo not given in full): the IC50 in the assay on L1210 [2] is more than 50 µM.

As for `CC(CCCOC(=O)c1ccc2ccccc2n1)C1CC[C@H]2[C@@H]3[C@H](O)CC4C[C@H](OC(=O)c5cnc6ccccc6n5)CC[C@]4(C)[C@H]3C[C@H](O)[C@]12C` (stereo not given in full), in the assay on L1210 [2], the concentration for half-maximal inhibition (IC50) is more than 50 µM.
